The record followed here is patent publication US9957214B2, “Multifunctional radical quenchers” (ARIZONA BOARD OF REGENTS ON BEHALF OF ARIZONA STATE …, priority 2012, dated 2018).

The test system of series [1] is differentiated SH-SY5Y cells. Description: Neuroprotection against Aβ 1-42 oligomer induced cytotoxicity (WST-1). In kind it is cell-based, human. The conditions noted are these: Aβ 1-42 oligomers 2.5 μM, 48 h. The protocol: FIG. 8. Effect of nitrogen-containing 1,4-benzoquinone 40 and geldanamycin on Aβ 1-42 induced neurotoxicity in differentiated SH-SY5Y cells.
The cytotoxic effect of Aβ 1-42 oligomers (2.5 μM) on differentiated SH-SY5Y cells was evaluated in presence and absence of the test compounds. Sequential treatment of the human SH-SY5Y neuroblastoma cell line with retinoic acid and brain-derived neurotrophic factor (BDNF) generates nearly pure populations of human neuron-like cells, thus providing a model for the study of neuronal differentiation and neuroprotection as previously described, with some modifications (Encinas et al. (2000) J. Neurochem. 75, 991-1003). […] The plates were incubated at 37° C. in an atmosphere having 95% humidity and 5% CO2 for 48 h and then cell viability was measured using a WST-1 Kit (Roche Diagnostics). […] Color intensity was measured with a 96-well plate at 450 nm using a SpectraMax M5 microplate reader (Molecular Devices, Sunnyvale, Calif.). Results are expressed as percentage of viable cells relative to untreated control after subtracting background. Data are expressed as means±S.E.M. (n=3).
Synthetic human Aβ 1-42 was purchased from AnaSpec (San Jose, Calif.). […] Aβ 1-42 peptide content was determined by the method of bicinchoninic acid assay (micro-BCA kit, Pierce) using BSA as reference.
(In general: Tetrazolium assays rely on reduction of a dye to a coloured formazan, in cell work by metabolically active cells.)

The test system of series [2] is BT474 cell line and FRDA lymphocytes. As to the kind of experiment: Cytotoxicity assay (WST-1). In kind it is cell-based, human. The conditions noted are these: 48 h, varying concentrations. Here is the method: FIG. 5. Effect of compound 40 and geldanamycin on cell viability was compared to vehicle (DMSO) after treatment with varying concentrations for 48 h in BT474 cell line and FRDA lymphocytes, respectively. Each measurement is an average of three independent experiments run in quartet.
[…] geldanamycin were tested for their cytotoxicity in human breast cancer cell line BT474 and FRDA lymphocytes using the vital mitochondrial function assay WST-1 Kit (Roche Diagnostics). BT474 cells (2000 cell/well) and FRDA lymphocytes (5000 cell/well) (100 μl) were seeded in 96-well plates and incubated for 48 h. Compound 40 or geldanamycin at varying concentrations were added and the plates were returned to the incubator for 48 h. Cell viability was determined using a WST-1 Kit (Roche Diagnostics) following the manufacturer's instructions. WST-1 reagent (10 μL) was added to each well, containing 200 μL media and further incubation for 2 h (BT474) and 4 h (FRDA lymphocytes). Color intensity was measured at 450 nm using a SpectraMax M5 microplate reader (Molecular Devices, Sunnyvale, Calif., USA). Results are expressed as percentage of viable cells relative to untreated control after subtracting background. Data are expressed as means±S.E.M. (n=3).

`COC1=C2CCCCCCCCCCCCCCCNC(=CC1=O)C2=O` [Compound 40]: in series [1], the “Effect on Aβ 1-42 induced cytotoxicity (in words)” value is recorded as “decreased Aβ 1-42 induced cytotoxicity in a concentration dependent manner”. Also, the “Cytotoxicity (in words)” value in series [2] is “no cytotoxicity”.
